The source of these data is patent US10106538B2, “Inhibitors of protein kinases” (PRINCETON DRUG DISCOVERY INC, priority 2015, dated 2018).

Holding throughout (assay): Off-chip Mobility Shift Assay (MSA) kinase inhibition
Common to all, as to type: biochemical

The target of one assay is T1, p38β (Homo sapiens, UniProt Q15759).
T1 construct: purchased Carna Biosciences
The note with it: inhibitor concentration 1 μM. A digest of the protocol: (§1)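 Compound, substrate/ATP/metal and kinase were mixed in 20 mM HEPES, 0.01% Triton X100, 2 mM DTT, pH 7.5 and incubated 1 or 5 h (kinase-dependent) at room temperature. Product and substrate peptides were separated on LabChip; inhibition derived from P/(P+S) relative to complete-reaction and enzyme-free controls.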

The next assay has as its target T2, FYN(isoform b) (Homo sapiens, UniProt P06241).
T2 construct: purchased Carna Biosciences
A digest of the protocol: as §1

The target of another assay is T3, FLT1 (Homo sapiens, UniProt P17948).
T3 construct: purchased Carna Biosciences
T3 sequence (P17948 27-1338): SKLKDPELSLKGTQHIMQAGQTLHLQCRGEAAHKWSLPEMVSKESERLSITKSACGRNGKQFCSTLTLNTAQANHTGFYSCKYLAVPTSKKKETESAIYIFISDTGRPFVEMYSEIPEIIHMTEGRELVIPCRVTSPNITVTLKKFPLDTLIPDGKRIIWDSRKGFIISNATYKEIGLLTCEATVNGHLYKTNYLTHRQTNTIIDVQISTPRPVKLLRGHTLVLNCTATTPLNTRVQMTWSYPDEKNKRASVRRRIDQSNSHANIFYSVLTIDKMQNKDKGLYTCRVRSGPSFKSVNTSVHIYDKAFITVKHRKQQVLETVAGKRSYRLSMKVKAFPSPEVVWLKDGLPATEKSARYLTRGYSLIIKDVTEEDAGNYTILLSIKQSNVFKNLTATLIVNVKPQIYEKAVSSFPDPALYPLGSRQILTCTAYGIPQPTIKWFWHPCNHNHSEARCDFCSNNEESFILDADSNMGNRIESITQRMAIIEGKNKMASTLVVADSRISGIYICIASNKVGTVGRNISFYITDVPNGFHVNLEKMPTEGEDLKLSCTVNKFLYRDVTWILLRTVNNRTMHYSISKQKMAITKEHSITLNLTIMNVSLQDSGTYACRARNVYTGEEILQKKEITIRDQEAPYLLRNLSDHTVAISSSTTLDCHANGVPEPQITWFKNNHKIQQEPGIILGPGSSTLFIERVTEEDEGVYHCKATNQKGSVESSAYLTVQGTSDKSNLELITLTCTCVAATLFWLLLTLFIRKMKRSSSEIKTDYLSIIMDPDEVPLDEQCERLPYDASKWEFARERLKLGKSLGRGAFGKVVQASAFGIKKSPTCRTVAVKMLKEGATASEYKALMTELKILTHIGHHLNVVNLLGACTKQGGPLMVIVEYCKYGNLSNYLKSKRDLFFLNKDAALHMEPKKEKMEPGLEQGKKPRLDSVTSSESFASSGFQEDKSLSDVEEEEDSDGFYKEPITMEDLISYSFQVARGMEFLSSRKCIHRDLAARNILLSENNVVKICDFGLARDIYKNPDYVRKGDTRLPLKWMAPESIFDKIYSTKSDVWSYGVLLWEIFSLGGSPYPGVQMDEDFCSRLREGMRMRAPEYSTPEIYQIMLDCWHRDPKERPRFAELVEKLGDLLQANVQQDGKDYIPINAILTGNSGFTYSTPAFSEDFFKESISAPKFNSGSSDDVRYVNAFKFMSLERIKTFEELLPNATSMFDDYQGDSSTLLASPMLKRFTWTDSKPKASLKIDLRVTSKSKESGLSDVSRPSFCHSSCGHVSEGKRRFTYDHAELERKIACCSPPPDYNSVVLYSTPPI
The note with it: inhibitor concentration 1 μM. A digest of the protocol: as §1

The target in a further assay is T4, KIT(D816Y) (Homo sapiens, UniProt P10721, D816Y).
T4 construct: purchased Carna Biosciences
The conditions noted are these: inhibitor concentration 1 μM. A digest of the protocol:
as §1

For a further assay, the target named is T5, MAP2K5 (Homo sapiens, UniProt Q13163).
T5 construct: purchased Carna Biosciences
The note with it: inhibitor concentration 1 μM. A digest of the protocol: as §1

For another assay, the target named is T6, WNK3 (Homo sapiens, UniProt Q9BYP7).
T6 construct: purchased Carna Biosciences
T6 sequence (Q9BYP7 whole entry): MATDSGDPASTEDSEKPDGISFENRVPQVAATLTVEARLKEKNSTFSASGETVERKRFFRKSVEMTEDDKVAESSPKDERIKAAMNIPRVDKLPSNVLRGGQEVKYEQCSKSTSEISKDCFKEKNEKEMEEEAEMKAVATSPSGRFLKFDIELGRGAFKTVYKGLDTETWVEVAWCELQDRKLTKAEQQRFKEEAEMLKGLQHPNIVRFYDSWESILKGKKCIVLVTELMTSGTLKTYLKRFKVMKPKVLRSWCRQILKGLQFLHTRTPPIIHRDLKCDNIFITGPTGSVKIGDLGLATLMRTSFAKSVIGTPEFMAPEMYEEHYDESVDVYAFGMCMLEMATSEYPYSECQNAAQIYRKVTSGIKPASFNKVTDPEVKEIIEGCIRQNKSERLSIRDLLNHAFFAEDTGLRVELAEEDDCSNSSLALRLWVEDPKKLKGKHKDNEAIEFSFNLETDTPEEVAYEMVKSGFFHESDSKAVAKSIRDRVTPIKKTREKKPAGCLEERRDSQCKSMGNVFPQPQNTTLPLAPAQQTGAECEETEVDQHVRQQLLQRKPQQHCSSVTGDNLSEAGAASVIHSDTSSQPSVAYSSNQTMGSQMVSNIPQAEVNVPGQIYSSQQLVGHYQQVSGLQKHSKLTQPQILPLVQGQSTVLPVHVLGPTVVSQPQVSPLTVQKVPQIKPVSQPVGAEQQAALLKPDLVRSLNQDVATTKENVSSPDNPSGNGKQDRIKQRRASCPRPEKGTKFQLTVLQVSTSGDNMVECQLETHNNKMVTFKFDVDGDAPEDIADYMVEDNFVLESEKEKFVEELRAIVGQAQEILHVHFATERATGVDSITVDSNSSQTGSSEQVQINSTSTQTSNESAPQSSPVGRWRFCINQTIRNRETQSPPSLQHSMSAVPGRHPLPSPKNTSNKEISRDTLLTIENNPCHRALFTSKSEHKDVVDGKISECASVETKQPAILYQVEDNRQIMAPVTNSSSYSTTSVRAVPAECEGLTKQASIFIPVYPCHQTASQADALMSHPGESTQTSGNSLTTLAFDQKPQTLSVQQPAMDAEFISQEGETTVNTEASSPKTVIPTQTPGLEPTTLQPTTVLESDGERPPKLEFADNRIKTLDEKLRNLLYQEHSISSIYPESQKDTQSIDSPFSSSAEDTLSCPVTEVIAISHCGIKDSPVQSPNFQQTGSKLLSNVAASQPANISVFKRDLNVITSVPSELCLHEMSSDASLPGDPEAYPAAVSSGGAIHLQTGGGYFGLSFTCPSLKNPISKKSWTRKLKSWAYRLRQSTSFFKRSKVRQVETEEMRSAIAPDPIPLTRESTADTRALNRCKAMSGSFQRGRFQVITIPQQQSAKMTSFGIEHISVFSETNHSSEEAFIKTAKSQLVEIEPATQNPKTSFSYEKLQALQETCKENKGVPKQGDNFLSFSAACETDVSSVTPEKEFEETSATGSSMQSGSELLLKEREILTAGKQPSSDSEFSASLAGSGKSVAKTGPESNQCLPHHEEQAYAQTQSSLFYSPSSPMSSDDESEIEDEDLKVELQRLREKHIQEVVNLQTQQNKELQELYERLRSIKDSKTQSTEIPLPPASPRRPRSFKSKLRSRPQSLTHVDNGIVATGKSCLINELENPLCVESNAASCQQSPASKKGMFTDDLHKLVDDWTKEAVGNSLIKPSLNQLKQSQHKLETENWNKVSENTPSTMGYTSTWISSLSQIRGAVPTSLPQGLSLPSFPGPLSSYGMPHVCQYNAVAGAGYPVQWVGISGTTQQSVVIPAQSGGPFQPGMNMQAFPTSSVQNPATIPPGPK
The note with it: inhibitor concentration 1 μM. A digest of the protocol: as §1

The target in a further assay is T7, DDR2 (Homo sapiens, UniProt Q16832).
T7 construct: purchased Carna Biosciences
T7 sequence (Q16832 22-855): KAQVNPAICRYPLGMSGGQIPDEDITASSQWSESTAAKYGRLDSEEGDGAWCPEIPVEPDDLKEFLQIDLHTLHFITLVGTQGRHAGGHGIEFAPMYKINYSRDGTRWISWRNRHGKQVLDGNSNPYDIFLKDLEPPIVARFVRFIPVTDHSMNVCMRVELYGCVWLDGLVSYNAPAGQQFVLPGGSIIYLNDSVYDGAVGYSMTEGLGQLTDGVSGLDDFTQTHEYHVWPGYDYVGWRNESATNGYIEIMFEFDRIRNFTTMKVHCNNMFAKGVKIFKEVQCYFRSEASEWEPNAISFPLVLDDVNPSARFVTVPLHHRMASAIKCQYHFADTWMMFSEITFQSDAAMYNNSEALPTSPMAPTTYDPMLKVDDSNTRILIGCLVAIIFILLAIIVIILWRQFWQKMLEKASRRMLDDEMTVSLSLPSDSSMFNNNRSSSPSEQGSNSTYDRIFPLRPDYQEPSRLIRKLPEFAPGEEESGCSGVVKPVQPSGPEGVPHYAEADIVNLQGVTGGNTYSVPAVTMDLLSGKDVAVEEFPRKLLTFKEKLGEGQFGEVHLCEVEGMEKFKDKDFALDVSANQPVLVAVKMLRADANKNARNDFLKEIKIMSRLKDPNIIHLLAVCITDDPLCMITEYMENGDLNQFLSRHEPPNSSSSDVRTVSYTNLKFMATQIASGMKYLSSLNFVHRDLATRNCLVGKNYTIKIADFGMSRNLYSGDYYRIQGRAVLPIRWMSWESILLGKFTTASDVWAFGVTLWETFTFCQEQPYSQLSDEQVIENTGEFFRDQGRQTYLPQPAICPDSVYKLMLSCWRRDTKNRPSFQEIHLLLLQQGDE
A digest of the protocol: as §1

In the next assay the target is T8, skMLCK (Homo sapiens, UniProt Q9H1R3).
T8 construct: purchased Carna Biosciences
The note with it: inhibitor concentration 1 μM. A digest of the protocol: as §1

The next assay deals with T9, PKD1 (Homo sapiens, UniProt Q15139).
T9 construct: purchased Carna Biosciences
T9 sequence (Q15139 whole entry): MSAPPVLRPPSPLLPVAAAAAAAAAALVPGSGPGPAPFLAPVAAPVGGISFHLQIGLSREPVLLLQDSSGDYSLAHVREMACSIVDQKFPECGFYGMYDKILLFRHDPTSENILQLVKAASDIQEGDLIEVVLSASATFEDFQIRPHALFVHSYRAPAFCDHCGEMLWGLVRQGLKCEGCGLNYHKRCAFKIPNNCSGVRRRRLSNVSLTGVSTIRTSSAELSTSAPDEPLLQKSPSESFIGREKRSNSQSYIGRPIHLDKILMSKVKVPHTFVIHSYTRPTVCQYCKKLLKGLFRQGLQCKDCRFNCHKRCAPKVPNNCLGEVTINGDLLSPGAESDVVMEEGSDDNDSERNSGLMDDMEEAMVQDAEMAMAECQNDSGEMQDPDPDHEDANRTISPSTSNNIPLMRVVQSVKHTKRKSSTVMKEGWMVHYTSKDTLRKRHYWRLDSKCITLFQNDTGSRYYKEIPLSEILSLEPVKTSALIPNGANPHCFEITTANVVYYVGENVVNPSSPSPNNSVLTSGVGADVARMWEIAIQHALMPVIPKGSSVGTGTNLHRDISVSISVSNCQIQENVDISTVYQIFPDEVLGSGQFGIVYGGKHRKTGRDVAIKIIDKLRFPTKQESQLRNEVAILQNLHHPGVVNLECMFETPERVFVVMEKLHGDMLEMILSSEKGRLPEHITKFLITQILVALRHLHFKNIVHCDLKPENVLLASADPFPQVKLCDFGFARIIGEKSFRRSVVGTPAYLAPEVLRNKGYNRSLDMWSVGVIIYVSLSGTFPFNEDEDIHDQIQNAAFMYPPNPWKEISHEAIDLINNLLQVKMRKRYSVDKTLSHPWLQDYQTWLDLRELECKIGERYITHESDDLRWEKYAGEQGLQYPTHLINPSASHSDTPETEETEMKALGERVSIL
The conditions noted are these: inhibitor concentration 1 μM. A digest of the protocol: as §1

The target of a further assay is T10, YES(T348I) (Homo sapiens, UniProt P07947, T348I).
T10 construct: purchased Carna Biosciences
T10 sequence (P07947 whole entry T348I): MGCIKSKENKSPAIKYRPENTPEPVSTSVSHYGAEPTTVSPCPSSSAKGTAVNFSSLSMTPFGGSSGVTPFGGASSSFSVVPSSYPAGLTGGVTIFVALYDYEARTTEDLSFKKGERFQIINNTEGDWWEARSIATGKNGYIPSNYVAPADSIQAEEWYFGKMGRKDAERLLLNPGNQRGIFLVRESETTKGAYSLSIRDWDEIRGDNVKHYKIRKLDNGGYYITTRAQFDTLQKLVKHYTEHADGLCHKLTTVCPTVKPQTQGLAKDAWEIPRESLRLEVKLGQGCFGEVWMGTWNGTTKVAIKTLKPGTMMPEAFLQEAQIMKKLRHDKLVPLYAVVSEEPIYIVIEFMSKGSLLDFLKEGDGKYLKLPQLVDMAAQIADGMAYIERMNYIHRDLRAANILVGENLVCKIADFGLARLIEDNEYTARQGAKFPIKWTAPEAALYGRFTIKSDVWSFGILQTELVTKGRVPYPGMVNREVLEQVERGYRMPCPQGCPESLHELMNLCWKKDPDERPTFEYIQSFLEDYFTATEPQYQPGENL
The conditions noted are these: inhibitor concentration 1 μM. A digest of the protocol: as §1

For the next assay, the target named is T11, KIT(V654A) (Homo sapiens, UniProt P10721, V654A).
T11 construct: purchased Carna Biosciences
The note with it: inhibitor concentration 1 μM. A digest of the protocol: as §1

Another assay deals with T12, PKD3 (Homo sapiens, UniProt O94806).
T12 construct: purchased Carna Biosciences
The note with it: inhibitor concentration 1 μM. A digest of the protocol: as §1

Setting [1] is: inhibitor concentration 0.01 μM.

T2 sequence (P06241 1-534 isoform P06241-2): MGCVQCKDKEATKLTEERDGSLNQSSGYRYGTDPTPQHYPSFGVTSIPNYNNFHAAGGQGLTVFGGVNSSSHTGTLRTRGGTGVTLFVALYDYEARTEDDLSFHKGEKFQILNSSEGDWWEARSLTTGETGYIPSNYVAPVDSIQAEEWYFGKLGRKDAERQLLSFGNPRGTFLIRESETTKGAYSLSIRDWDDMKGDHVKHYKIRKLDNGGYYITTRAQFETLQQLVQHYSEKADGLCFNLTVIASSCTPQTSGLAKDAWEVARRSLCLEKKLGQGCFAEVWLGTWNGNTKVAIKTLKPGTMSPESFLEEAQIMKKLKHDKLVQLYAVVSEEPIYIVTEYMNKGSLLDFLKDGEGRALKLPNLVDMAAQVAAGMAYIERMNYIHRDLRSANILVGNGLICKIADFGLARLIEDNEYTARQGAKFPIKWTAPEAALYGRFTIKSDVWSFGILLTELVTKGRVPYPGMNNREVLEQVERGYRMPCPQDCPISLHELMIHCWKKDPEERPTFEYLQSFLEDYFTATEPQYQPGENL

As usually defined, the inhibition is the relative decrease from the control value, in per cent. Turning to `O=C(c1c(F)ccc(NS(=O)(=O)CCCO)c1F)c1c[nH]c2ncc(-c3ccc(Cl)cc3)cc12` [200-17, N-[3-[5-(4-chlorophenyl)-1H-pyrrolo[2,3-b]pyridine-3-carbonyl]-2,4-difluorophenyl]-3-hydroxypropane-1-sulfonamide], the inhibition at 1 µM is more than 50% on p38β; more than 50% at FYN(isoform b) (inhibitor concentration 1 μM); more than 50% on FLT1; less than 50% on KIT(D816Y); more than 50% at MAP2K5; more than 50% on WNK3. Also, the inhibition at 1 µM at DDR2 (inhibitor concentration 1 μM) was more than 50%; on skMLCK it was more than 50%; on PKD1, less than 50%; on YES(T348I) it was more than 50%; on KIT(V654A), more than 50%; on PKD3, less than 50%. In addition, the inhibition at 0.01 µM at FYN(isoform b) (setting [1]) and on DDR2 (setting [1]) was less than 30% in each case. Besides, the inhibition at 0.1 µM at FYN(isoform b) (inhibitor concentration 0.1 μM) was less than 50%; on DDR2 (inhibitor concentration 0.1 μM) it was more than 50%.
